Laboratory results taken from ChEMBL document CHEMBL2150907, “BACE-Inhibitors: Potential Treatment of Alzheimer Disease, Dementia, and Related Neurodegenerative Diseases. C. Spiro-Heterocyclic Derivatives: Patent Highlight” (ACS Med Chem Lett, 2012).

Target: Beta-secretase 1 (Homo sapiens, UniProt P56817)
Experiment: Inhibition of BACE1-mediated amyloid beta (1 to 40) production after 48 hrs by cell based HTRF immunoassay

Chain of Beta-secretase 1 (P56817 whole entry): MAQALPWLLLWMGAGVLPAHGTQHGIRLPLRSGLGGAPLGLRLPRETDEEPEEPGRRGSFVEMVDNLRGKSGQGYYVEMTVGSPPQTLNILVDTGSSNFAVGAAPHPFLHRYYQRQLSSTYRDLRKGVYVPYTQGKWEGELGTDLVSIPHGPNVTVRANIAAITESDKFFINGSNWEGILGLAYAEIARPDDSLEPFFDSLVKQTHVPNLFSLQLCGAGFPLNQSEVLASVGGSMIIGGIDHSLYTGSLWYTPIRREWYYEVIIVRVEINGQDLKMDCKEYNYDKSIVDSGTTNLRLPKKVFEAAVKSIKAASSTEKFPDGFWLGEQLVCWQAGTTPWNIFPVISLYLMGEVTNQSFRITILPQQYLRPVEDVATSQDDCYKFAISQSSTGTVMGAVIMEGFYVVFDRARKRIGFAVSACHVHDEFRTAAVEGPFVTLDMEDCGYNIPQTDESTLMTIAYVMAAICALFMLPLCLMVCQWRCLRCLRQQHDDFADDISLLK

IC50 | Compound
3080 nM | CN1C(=O)CC2(N=C1N)c1cc(-c3cc(F)cc(Cl)c3)ccc1OC1CC3(CC[C@@H]12)OCCO3 (stereo partly drawn)
8.9 nM | NC1=N[C@]2(CO1)c1cc(-c3cncc(Cl)c3)ccc1OC1OC[C@H](OCC3CC3)C[C@@H]12 (mixture of isomers)
7.8 nM | NC1=N[C@@]2(CO1)c1cc(-c3cncc(Cl)c3)ccc1OC1OC[C@H](OCC3CC3)C[C@@H]12 (single isomer, unassigned)
